Our source for the GI50 and TGI values is PubChem BioAssay (NCI).

Some test systems named below: BT-549 breast; MALME-3M melanoma; SR leukemia; RPMI-8226 leukemia; PC-3 prostate; SNB-75 CNS; SK-MEL-5 melanoma; EKVX NSCLC; ACHN renal; COLO 205 colon.
Holding throughout (test): NCI-60 cell line screen, 48 h

Several values for one entry are separate records, joined by “and”; a condition that tells them apart may be missing. Equal values may be shown once.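 96-well plates; 48 h exposure; 5 concentrations. Endpoints by linear interpolation between flanking doses. Not reached: highest tested concentration assigned. At the GI50, growth is halved. TGI denotes the concentration required for complete inhibition of growth.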

Turning to `COCCOCCOCCOCCOC(=O)OC[n+]1ccc(NC(=NCCCCCCOc2ccc(Cl)cc2)NC#N)cc1`, the GI50 in the assay with BT-549 breast was 5.71 µM; in the assay on MALME-3M melanoma it was 12.1 µM; in the assay on SR leukemia, 0.0905 µM; with RPMI-8226 leukemia it was under 0.01 µM; in the assay with PC-3 prostate it was under 0.01 µM; with SNB-75 CNS it was 14.1 µM. Also, the GI50 in the assay on SK-MEL-5 melanoma was 1.43 µM; in the assay with EKVX NSCLC, 3.93 µM; in the assay with ACHN renal, 10.8 µM; in the assay with COLO 205 colon, 0.231 µM. For the same compound, the TGI with BT-549 breast is 20.5 µM; with MALME-3M melanoma, 29.5 µM; in the assay on SR leukemia, over 45.6 µM; in the assay on RPMI-8226 leukemia, 3.13 µM; in the assay with PC-3 prostate, 14.2 µM; with SNB-75 CNS, 27.9 µM. Besides, the TGI amounted to 11.6 µM in the assay on SK-MEL-5 melanoma, 14.9 µM with EKVX NSCLC, 23.4 µM in the assay on ACHN renal and 15.5 µM in the assay with COLO 205 colon.

Consider `O=c1[nH]c2ccccc2n1C1CCN(CCCC(c2ccc(F)cc2)c2ccc(F)cc2)CC1`, for which the GI50 with BT-549 breast was 1.72 µM and 8.47 µM; in the assay with MALME-3M melanoma, 1.71 µM; in the assay with RPMI-8226 leukemia, 2.06 µM and 3.96 µM; with PC-3 prostate, 1.41 µM and 7.81 µM; in the assay with SK-MEL-5 melanoma, 1.42 µM and 2.13 µM; in the assay with EKVX NSCLC, 1.66 µM and 8.47 µM. In addition, the GI50 with ACHN renal is 1.66 µM and 10.9 µM; in the assay on COLO 205 colon it was 1.31 µM. Besides, the TGI is 3.31 µM and 23.6 µM in the assay on BT-549 breast; 3.42 µM and 5.09 µM in the assay with MALME-3M melanoma; 5.22 µM in the assay on SR leukemia; 8.97 µM and 20.4 µM in the assay with RPMI-8226 leukemia; 3.2 µM and 21.3 µM in the assay with PC-3 prostate; 25.6 µM in the assay with SNB-75 CNS. Further, the TGI with SK-MEL-5 melanoma is 2.74 µM and 4.8 µM; with EKVX NSCLC it was 4.54 µM and 22.7 µM; with ACHN renal, 3.16 µM and 24.7 µM; in the assay on COLO 205 colon, 2.58 µM and 3.31 µM.

As to `N#CCNC(=O)c1ccc(-c2ccnc(Nc3ccc(N4CCOCC4)cc3)n2)cc1`, the GI50 is 2.24 µM and 1.54 µM in the assay with BT-549 breast; 6.44 µM and 1.26 µM in the assay on MALME-3M melanoma; 0.498 µM and 0.458 µM in the assay with SR leukemia; 3.08 µM and 2.88 µM with RPMI-8226 leukemia; 3.77 µM and 1.77 µM with PC-3 prostate; 0.621 µM and 0.186 µM with SNB-75 CNS. In addition, the GI50 in the assay on SK-MEL-5 melanoma is 4.61 µM; in the assay with EKVX NSCLC it was over 10 µM; in the assay on ACHN renal, 1.35 µM and 0.531 µM; in the assay on COLO 205 colon, 3.17 µM and 2.96 µM. Besides, the TGI in the assay on BT-549 breast is > 10 µM and 5.8 µM; with MALME-3M melanoma, > 10 µM and 18.1 µM; in the assay on SR leukemia, 3.88 µM and 5.47 µM; with RPMI-8226 leukemia it was over 31.9 µM; in the assay with PC-3 prostate, > 10 µM and 38.8 µM; in the assay with SNB-75 CNS, 5.6 µM and 4.17 µM. The TGI in the assay with SK-MEL-5 melanoma was 38.7 µM; in the assay on EKVX NSCLC, over 10 µM; in the assay on ACHN renal it was over 37.1 µM; with COLO 205 colon, over 31.5 µM.

Take `COc1c(CC=C(C)C)c(O)c(C(CC(C)C)c2c(O)c(CC=C(C)C)c(O)c(C(C)=O)c2O)c(O)c1C(C)=O` (configuration not stated): the TGI in the assay with BT-549 breast came out at 14.9 µM; in the assay with MALME-3M melanoma, 6.45 µM; in the assay with SR leukemia, 3.8 µM; in the assay with RPMI-8226 leukemia, 4.17 µM; with PC-3 prostate, 10.3 µM; in the assay on SNB-75 CNS, 8.32 µM. The TGI with SK-MEL-5 melanoma came to 5.04 µM; in the assay with EKVX NSCLC, 11.4 µM; with ACHN renal it was 10.9 µM; with COLO 205 colon, 4.7 µM.

For `NCc1ccc(-c2nc(-c3ccc(Cl)c(O)c3)c(-c3ccncc3)[nH]2)cc1`, the GI50 in the assay with BT-549 breast is over 25 µM; with MALME-3M melanoma it was 2.72 µM; in the assay on SR leukemia, over 25 µM; in the assay with RPMI-8226 leukemia, over 25 µM; in the assay on PC-3 prostate, over 25 µM; with SNB-75 CNS it was 4.1 µM. In addition, the GI50 was over 15.4 µM with SK-MEL-5 melanoma, over 25 µM in the assay on EKVX NSCLC, over 25 µM in the assay on ACHN renal and over 25 µM in the assay with COLO 205 colon. For the same compound, the TGI with BT-549 breast was over 25 µM; in the assay on MALME-3M melanoma, 11.2 µM; in the assay with SR leukemia, over 25 µM; in the assay on RPMI-8226 leukemia it was over 25 µM; with PC-3 prostate, over 25 µM; with SNB-75 CNS it was over 20 µM. In addition, the TGI in the assay on SK-MEL-5 melanoma, with EKVX NSCLC, with ACHN renal and in the assay on COLO 205 colon was over 25 µM in each case.

On to `O=S(=O)(NCCCNc1cc(-c2cn(-c3ccccc3)nc2-c2cccc(O)c2)ccn1)c1ccc(F)cc1`, for which the GI50 with BT-549 breast is 2.28 µM; in the assay on MALME-3M melanoma it was 2.56 µM; in the assay on SR leukemia, 2.08 µM; with RPMI-8226 leukemia it was 2.23 µM; in the assay on PC-3 prostate, 3.11 µM; in the assay with SNB-75 CNS, 3.47 µM. Moreover, the GI50 with SK-MEL-5 melanoma is 3.06 µM; with EKVX NSCLC, 3.92 µM; in the assay with ACHN renal, 3.52 µM; in the assay with COLO 205 colon, 1.96 µM. The TGI came out at 7.78 µM with BT-549 breast; 8.91 µM in the assay on MALME-3M melanoma; 6.09 µM in the assay on SR leukemia; 7.63 µM with RPMI-8226 leukemia; 8.5 µM with PC-3 prostate; 16 µM with SNB-75 CNS. Further, the TGI is 10.1 µM with SK-MEL-5 melanoma, 64.4 µM with EKVX NSCLC, 33.8 µM in the assay on ACHN renal and 3.87 µM with COLO 205 colon.

Regarding `CC(C)(C)c1cc(C(=O)O)c2c(c1)C(=O)OC2(c1ccccc1)c1ccccc1C(=O)O` (configuration not stated), the GI50 in the assay on BT-549 breast, in the assay on RPMI-8226 leukemia, with PC-3 prostate and in the assay on SK-MEL-5 melanoma was over 100 µM each time. The TGI in the assay with BT-549 breast, in the assay on MALME-3M melanoma, with SR leukemia, in the assay on RPMI-8226 leukemia, in the assay on PC-3 prostate and with SNB-75 CNS was over 100 µM in each case. Also, the TGI in the assay on SK-MEL-5 melanoma, in the assay on EKVX NSCLC, in the assay with ACHN renal and in the assay with COLO 205 colon was over 100 µM in each case.
